According to patent US20100210597A1, “C21-Deoxy Ansamycin Derivatives as Antitumor Agents” (priority 2007, published 2010):
Values after ≈ are worked out from the molar mass of the structure shown. Values joined by “and” are separate entries in the source; they are usually repeats but may differ in a detail not shown here. Identical values can stand only once. Like-named read-outs stand apart in the source and are kept apart here.

Key:
[1] = Solubility assay in 2% DMSO in PBS; assay type: physicochemical; conditions: 2% DMSO in PBS pH 7.3, 0.5 mM, shaken up to six hours
Procedure: To analyse the solubilities of 17-AAG, geldanamycin, 18,21-dihydromacbecin and macbecin, solutions (25 mM) of the test compounds were prepared by dissolving 3-5 mg aliquots in the appropriate amount of DMSO.
Aliquots (0.01 mL) were added to 0.490 mL of pH 7.3 PBS in glass vials. For each time point, 3 PBS vials were prepared in amber glass vials. For the six hour time point triplicate aliquots in DMSO were also prepared.
The resulting 0.5 mM solutions were shaken for up to six hours, with vials removed for analysis at 1, 3 and 6 hours. Samples were analysed by HPLC (0.025 mL injections). Compounds were quantified by peak area measurement at 274 nm.
Solubility in 2% DMSO in PBS at each time point was determined by comparing total peak areas for each chromatogram with mean total peak area for chromatograms produced from the corresponding 6 hour DMSO solutions. (Mean total peak area in DMSO solutions was assumed to be equivalent to a 0.5 mM solution). The solubility of compound 17 was measured by a thermodynamic assay as described in the general methods.

[2] = Aqueous solubility by direct dissolution; assay type: physicochemical; conditions: pH 4.5, aqueous buffer, aqueous 5 mM citrate, pH 4.5; limit not tested
From the text: It is not possible to measure the solubility of 20 and 23 by this method due to their intrinsic high aqueous solubility.

[3] = In vitro cleavage assay in buffer; assay type: physicochemical; conditions: for half-life at 0.1 mg/ml: read-out: half-life of disappearance (converted)
Procedure: Samples were monitored by LC-UV, on an Agilent 1100 HPLC. Chromatography was achieved over a Phenomenex Hyperclone column, BDS C18 3 u (150×4.6 mm):
Mobile phase A: 0.1% Formic acid in water Mobile phase B: 0.1% Formic acid in acetonitrile Flow rate: 1 mL/minute: Gradient, t=0 mins, B=10%; t=2 mins, B=10%; t=20 mins, B=100%.
Compound 23 elutes at 12.1 mins and compound 17 elutes at 11.2 minutes in these conditions.
0.05 ml injections were made, repeatedly from the same sample every 3.18 hours, for 50 hours. the ambient temperature was 23 degrees C. The UV response was measured for each time point for compound 23 and 17. The half-life of disappearance of compound 23 was calculated thus:
the natural logarithm of the response was plotted with respect to time (in hours). The slope and fit of the resultant line was calculated and the half life, t1/2=(In 2)/lambda. Where lambda is the slope of the graph.

Hsp90 = Hsp90 (Homo sapiens, UniProt P07900); conditions: cited from earlier work
[4] = test system: panel of human tumour cell lines; assay: Monolayer proliferation assay, mean across cell line panel; assay type: cell-based; conditions: geometric mean of all replicates across six cell lines
Procedure: In vitro evaluation of compounds for anticancer activity in a panel of human tumour cell lines in a monolayer proliferation assay was carried out at the Oncotest Testing Facility, Institute for Experimental Oncology, Oncotest GmbH, Freiburg.
The Oncotest cell lines are established from human tumor xenografts as described by Roth et al., (1999). The origin of the donor xenografts is described by Fiebig et al., (1999). Other cell lines are either obtained from the NCl (DU145, MCF-7) or purchased from DSMZ, Braunschweig, Germany.
All cell lines, unless otherwise specified, are grown at 37° C. in a humidified atmosphere (95% air, 5% CO2) in a ‘ready-mix’ medium containing RPMI 1640 medium, 10% fetal calf serum, and 0.1 mg/mL gentamicin (PAA, Cölbe, Germany).
A modified propidium iodide assay was used to assess the effects of the test compound(s) on the growth of six human tumour cell lines (Dengler et al., (1995)).
Briefly, cells are harvested from exponential phase cultures by trypsinization, counted and plated in 96 well flat-bottomed microtitre plates at a cell density dependent on the cell line (5-10.000 viable cells/well). […] After thawing the plates, fluorescence was measured using the Cytofluor 4000 microplate reader (excitation 530 nm, emission 620 nm), giving a direct relationship to the total number of viable cells.
Growth inhibition is expressed as treated/control×100 (% T/C). […]

COC1CC(C)C(OC)c2cc(O)cc(c2O)NC(=O)/C(C)=C\C=C/C(C)C(OC(N)=O)/C(C)=C\C(C)C1OC (stereo not drawn) [18,21-dihydromacbecin]
solubility [1]: 0.136 mM (≈ 76.3 µg/mL)

C=CCNC1=C2C[C@@H](C)C[C@H](OC)[C@H](O)[C@@H](C)/C=C(\C)[C@H](OC(N)=O)[C@@H](OC)/C=C\C=C(/C)C(=O)NC(=CC1=O)C2=O [Compound 17-AAG, 17-(allylamino)-17-desmethoxy geldanamycin]
solubility [1]: 0.171 mM (≈ 100 µg/mL)

CNCCN(C)C(=O)Oc1cc2cc(c1)NC(=O)/C(C)=C/CC[C@H](C)[C@@H](OC(N)=O)/C(C)=C/[C@H](C)[C@@H](O)[C@@H](OC)C[C@H](C)C2 [Compound 23, 18-O-(N,N′-dimethylethylenediaminecarbamoyl)-4,5-dihydro-11-O-demethyl-15-demethoxy-18,21-didehydro-18-hydroxy-21-deoxomacbecin]
solubility [2]: ≥ 3000 µg/mL and ≥ 4600 µM
half-life of disappearance ([3]; 0.1 M potassium phosphate buffer pH 4.5, 23 degrees C): not calculable (zero slope)
half-life at 0.1 mg/ml ([3]; 0.1 M potassium phosphate buffer pH 5.9, 23 degrees C): 4160 min
half-life at 0.1 mg/ml ([3]; 0.1 M potassium phosphate buffer pH 6.5, 23 degrees C): 714 min
half-life at 0.1 mg/ml ([3]; 0.1 M potassium phosphate buffer pH 7.4, 23 degrees C): 120 min
half-life at 0.1 mg/ml ([3]; 5% glucose, 23 degrees C): 1920 min
product of cleavage ([3]; by LC-UV-MS): compound 17

CO[C@H]1C[C@H](C)Cc2cc(O)cc(c2)NC(=O)/C=C/CC[C@H](OC)[C@@H](OC(N)=O)/C(C)=C/[C@H](C)[C@H]1O [KOSN1559]
binding affinity to Hsp90, greater than 17-AAG (Hsp90; relative to 17-AAG): 8 fold
binding affinity to Hsp90, greater than geldanamycin (Hsp90; relative to geldanamycin): 4 fold

CO[C@H]1[C@@H](OC)C[C@H](C)[C@@H](OC)C2=CC(=O)C=C(NC(=O)/C(C)=C/C=C\[C@H](C)[C@@H](OC(N)=O)/C(C)=C/[C@@H]1C)C2=O [macbecin, reference compound]
average IC70 value across the cell-line panel [4]: 0.21 µg/mL
